The nature of assay [1]: Binding affinity to AT-rich sequence of double strand DNA by fluorescence spectra.
Assay [2] in a line: Binding affinity to ODN1/2 double strand DNA by fluorescence spectra.

Activity calls are given as the source filed them. No cut-off for these calls is given here.

`CC(=O)Nc1cc(C(=O)Nc2cc(C(=O)NCCC(=O)Nc3cc(C(=O)Nc4cc(C(=O)NCCC(=O)NCCCN(C)C)n(C)c4)n(C)c3)n(CC#Cc3ccc4c5cccc6cccc(c7cccc3c74)c65)c2)n(C)c1`: the result in assay [1] and in assay [2] was Active.

Source of the values: ChEMBL document CHEMBL1152263, “Perylene-conjugated pyrrole polyamide as a sequence-specific fluorescent probe” (Bioorg Med Chem, 2008).
